Laboratory results reported in US8748170B2, “Polypeptides derived from cyclin B1 and uses thereof” (priority 2008, dated 2014).

Each sequence was assayed on CD4+T cells (assay: CFSE dilution proliferation of CD4+ T cells in PBMC of heavy smokers). Details: PBMC from 5 heavy smokers negative for lung cancer by CT; peptide approximately 2 μg/ml; 6 days; one or more of the peptides.
Format: cell-based, human
From the text: The amino acid sequence of the whole CB1 protein was synthesized as a series of peptides (generally 12-15 amino acids in length) that overlap by 11 amino acids (each peptide is offset by 4 amino acids). This approach is used when HLA of the subjects being tested is unknown and when there is a potential for multiple reactive peptides restricted by a variety of HLA molecules. It is also useful when the blood collection volumes are too small for dendritic cell generation, and other antigen presenting cells in the peripheral blood are counted on to present peptides without the need for further antigen processing.
Peripheral blood was collected into vaccutainers containing heparin sulfate and processed to obtain peripheral blood mononuclear cells (PBMC) by density centrifugation. PBMC were washed in PBS and labeled with 5 μM CFSE (Invitrogen) in warmed 0.1% FBS in PBS for 10 minutes at 37° C. The CFSE was quenched with 3 volumes of ice cold complete RPMI and incubated for 5 minutes before washes with complete RPMI. PBMC were then resuspended in media containing anti-CD28 and anti-CD49d antibodies for additional costimualtion. Wells coated with anti-CD3 were used as positive controls. Peptides were added at approximately 2 μg/ml. No peptide was added to negative control wells. After 6 days, cells were stained for cell surface markers and tested for proliferation by CFSE dilution using flow cytometry. Peptides that induced proliferation above that seen in the wells receiving no peptides were considered to be stimulatory.

Sequence | CD4+ T cell proliferation in response to peptide, above background (no peptide)
MYMTVSIIDRFM [Pep63, cyclin B1 amino acids 223-234] | show proliferation
KFRLLQETMYMTVSI [Pep61, cyclin B1 amino acids 215-229] | show proliferation
LQETMYMTVSIIDRF [Pep62, cyclin B1 amino acids 219-233] | show proliferation
